# Columns and labels:
# CCR2 receptor = target: T1, CCR2 receptor (Homo sapiens, UniProt P41597); experiment: Inhibition of MCP-1 induced Ca-flux in human THP-1 cells; format: cell-based; conditions: inhibition of specific MCP-1 induced Ca2+ flux, 10^-7 M hMCP-1, 20 minutes pre-incubation, FLIPR, Fluo-3 AM
# T1 construct: host or cells: THP-1 (human monocytic cell line)
# T1 sequence (P41597 1-360 isoform P41597-2): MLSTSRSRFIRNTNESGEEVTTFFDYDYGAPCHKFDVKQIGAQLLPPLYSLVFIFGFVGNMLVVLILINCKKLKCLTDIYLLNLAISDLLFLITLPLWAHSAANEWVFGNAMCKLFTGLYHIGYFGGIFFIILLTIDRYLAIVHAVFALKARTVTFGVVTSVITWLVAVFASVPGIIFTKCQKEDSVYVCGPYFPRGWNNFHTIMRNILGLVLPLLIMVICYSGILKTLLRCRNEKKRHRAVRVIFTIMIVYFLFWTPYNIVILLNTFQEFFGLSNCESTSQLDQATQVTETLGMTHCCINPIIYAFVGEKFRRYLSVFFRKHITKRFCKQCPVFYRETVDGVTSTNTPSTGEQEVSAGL
# Protocol: Inhibition of MCP-1 Induced Ca-flux in Human THP-1 Cells
# MCP-1 binding to the CCR2 receptor induces a rapid and transient intracellular release of Ca^2+ (secondary messenger) in several cell lines (Charo et al, PNAS 1994). Free Ca^2+ levels can be measured using a Ca^2+ sensitive dye. When the CCR2 receptor is blocked with a CCR2 receptor antagonist, the MCP-1 induced release of Ca^2+ is inhibited.
# Human THP-1 cells (monocytic cell line, ATCC TIB-202) were cultured in RPMI 1640 medium supplemented with 10% fetal calf serum (FCS), 1% L-Glutamine, penicillin (50 U/ml) and streptomycin (50 μg/ml) (all GIBCO BRL, Gent). After centrifugation, cells were loaded for 30 minutes with the Ca^2+ sensitive fluorescent dye Fluo-3 AM (Molecular Probes, Leiden, Netherlands) (2 million cells/ml in RPMI medium containing 4 μM Fluo-3 AM, 20 mM HEPES, 0.1% Bovine Serum Albumin (BSA) and 5 mM probenecid). Excess dye was removed by 3-fold washing with buffer (5 mM HEPES, 140 mM NaCl, 1 mM MgCl2, 5 mM KCl, 10 mM glucose, 2.5 mM probenecid, 1.25 mM CaCl2, 0.1% BSA; all further incubations were done in this buffer). Cells were plated at a density of 150 000 cells/well in dark-wall 96-well plates (Costar, Cambridge, Mass.) and sedimented by centrifugation (1 minute). The cells were pre-incubated for 20 minutes with test compound. Then, 10^−7 M hMCP-1 (Bachem, Bubendorf, Switserland) was added. Changes in intracellular free Ca^2+ concentration were measured using the Fluorescent Imaging Plate Reader (FLIPR, Molecular Devices, Munchen, Germany). Fluorescence was recorded every second from 10 seconds before the addition of the MCP-1 till 2 minutes after the addition (first minute: 60 records with 1 second intervals, second minute 20 records with 3 second intervals). The maximal fluorescence obtained during this time frame was used for further calculations.
# Table 3 reports pIC50 values obtained in the above-described test for compounds of formula (I). pIC50 defines −log IC50 wherein IC50 is the molar concentration of the test compound which inhibits 50% of specific MCP-1 induced Ca^2+ flux.
SMILES,IC50 (CCR2 receptor) [nM],melting point [°C]
CCC(c1ccc(Cl)c(Cl)c1)n1c(C(=O)OC)c(NC(=O)N2CCN(C)CC2)[nH]c1=S (stereo not drawn) [Compound 20],316,
CCC(c1ccc(Cl)c(Cl)c1)n1c(C(=O)OC)c(NC(C)=O)[nH]c1=S (stereo not drawn) [Compound 2],50.1,
CCC(c1ccc(Cl)c(Cl)c1)n1c(C(=O)OC)c(NC(=O)c2ccccn2)[nH]c1=S (stereo not drawn) [Compound 12],39.8,
CCC(c1ccc(Cl)c(Cl)c1)n1c(C(=O)OC)c(NC(=O)c2cc(C)on2)[nH]c1=S (stereo not drawn) [Compound 7],158,
CCC(c1ccc(Cl)c(Cl)c1)n1c(C(=O)OC)c(NC(=O)N2CCOCC2)[nH]c1=S (stereo not drawn) [Compound 18],100,
CCC(c1ccc(Cl)c(Cl)c1)n1c(C(=O)OC)c(N)[nH]c1=S (stereo not drawn) [Compound 1],63.1,183.9 to 184
CCC(c1ccc(Cl)c(Cl)c1)n1c(C(=O)OC)c(NC(=O)c2nonc2C)[nH]c1=S (stereo not drawn) [Compound 8],501,
CCC(c1ccc(Cl)c(Cl)c1)n1c(C(=O)OC)c(NC(=O)c2cccnc2)[nH]c1=S (stereo not drawn) [Compound 5],200,
CCC(c1ccc(Cl)c(Cl)c1)n1c(C(=O)OC)c(NC(=O)OC)[nH]c1=S (stereo not drawn) [Compound 15],15.8,

# Second part, led by results:
IC50 (CCR2 receptor) [nM],SMILES,melting point [°C]
398,CCC(c1ccc(Cl)c(Cl)c1)n1c(C(=O)OC)c(NC(=O)N2CCN(Cc3ccccc3)CC2)[nH]c1=S (stereo not drawn) [Compound 22],
631,CCC(c1ccc(Cl)c(Cl)c1)n1c(C(=O)OC)c(NC(=O)NCc2ccccc2)[nH]c1=S (stereo not drawn) [Compound 17],
126,CCC(=O)Nc1[nH]c(=S)n(C(CC)c2ccc(Cl)c(Cl)c2)c1C(=O)OC (stereo not drawn) [Compound 4],
200,CCC(c1ccc(Cl)c(Cl)c1)n1c(C(=O)OC)c(NC(=O)c2ccccc2)[nH]c1=S (stereo not drawn) [Compound 10],
200,CCC(c1ccc(Cl)c(Cl)c1)n1c(C(=O)OC)c(NC(=O)c2cncnc2)[nH]c1=S (stereo not drawn) [Compound 9],
126,CCC(c1ccc(Cl)c(Cl)c1)n1c(C(=O)OC)c(NC(=O)N2CCCC2)[nH]c1=S (stereo not drawn) [Compound 21],
158,CCC(c1ccc(Cl)c(Cl)c1)n1c(C(=O)OC)c(NC(=O)N2CCCCC2)[nH]c1=S (stereo not drawn) [Compound 23],
79.4,CCC(c1ccc(Cl)c(Cl)c1)n1c(C(=O)OC)c(NC(=O)C2CCCO2)[nH]c1=S (stereo not drawn) [Compound 19],
79.4,CCC(c1ccc(Cl)c(Cl)c1)n1c(C(=O)OC)c(NC(=O)C2CCOC2)[nH]c1=S (stereo not drawn) [Compound 13],
79.4,CCC(c1ccc(Cl)c(Cl)c1)n1c(C(=O)OC)c(NC(=O)c2cnccn2)[nH]c1=S (stereo not drawn) [Compound 3],196.9 to 198.6
25.1,CCC(c1ccc(Cl)c(Cl)c1)n1c(C(=O)OC)c(NC(=O)c2ccco2)[nH]c1=S (stereo not drawn) [Compound 11],
126,CCC(c1ccc(Cl)c(Cl)c1)n1c(C(=O)OC)c(NC(=O)c2ccncc2)[nH]c1=S (stereo not drawn) [Compound 6],
251,CCC(c1ccc(Cl)c(Cl)c1)n1c(C(=O)OC)c(NC(=O)NCC(OC)OC)[nH]c1=S (stereo not drawn) [Compound 16],
